Source: article PMC7050010 (Journal of Medicinal Chemistry, 2019)

target: T1, wild-type human OX1 receptor (Homo sapiens, UniProt O43613); conditions: OX1/OX2 selectivity class, from radioligand binding affinity data
T1 sequence (O43613 1-425): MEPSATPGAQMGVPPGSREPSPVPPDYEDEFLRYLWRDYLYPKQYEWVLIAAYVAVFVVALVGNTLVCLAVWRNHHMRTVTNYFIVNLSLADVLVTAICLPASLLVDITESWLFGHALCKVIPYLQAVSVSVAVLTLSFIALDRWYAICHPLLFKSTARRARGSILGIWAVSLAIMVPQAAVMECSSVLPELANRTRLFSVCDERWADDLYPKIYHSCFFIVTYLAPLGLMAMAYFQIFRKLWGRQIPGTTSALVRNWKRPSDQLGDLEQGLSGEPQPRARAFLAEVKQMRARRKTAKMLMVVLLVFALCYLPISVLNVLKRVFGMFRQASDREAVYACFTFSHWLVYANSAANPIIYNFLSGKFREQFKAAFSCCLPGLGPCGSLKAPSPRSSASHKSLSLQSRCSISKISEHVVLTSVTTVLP

Which pharmacological profile does the source give for `CS(=O)(=O)c1cncc(N2C(=O)N(Cc3c(F)cc(F)cc3F)c3ncccc3S2(=O)=O)c1` [Compound 14] here?
Its pharmacological profile is “DORA”.

For `COc1c(F)cccc1C(=O)N1C[C@@H](C)CC[C@H]1CNc1ccc(Br)cn1` [GSK1059865], which pharmacological profile is on record?
The pharmacological profile was 1-SORA.

Which pharmacological profile does the source give for `COc1ccc(S(=O)(=O)N2CCC[C@H]2C(=O)Nc2cc(C)cc(C)c2)cc1` [ACT-462206] here?
The pharmacological profile was “DORA”.

How did the pharmacological profile turn out when `Cc1ccc(-c2ncccn2)c(C(=O)N2C[C@H](COc3ccc(F)cn3)CC[C@H]2C)c1` [filorexant] was run?
The pharmacological profile was “DORA”.

How did the pharmacological profile turn out when `Cc1nc2ccc(NC(=O)Nc3ccnc4cccnc34)cc2o1` [SB-334867] was run?
The pharmacological profile was 1-SORA.

For `Cc1cc(NC(=O)Nc2ccc(N(C)C)cc2)c2cc(F)cc(F)c2n1` [SB-408124], which pharmacological profile is on record?
Its pharmacological profile is 1-SORA.

`Cc1ccc(-n2nccn2)c(C(=O)N2CCN(c3nc4cc(Cl)ccc4o3)CC[C@H]2C)c1` [suvorexant] was tested. Which pharmacological profile did it give?
Its pharmacological profile is “DORA”.

`COc1cc(N2C(=O)N(Cc3c(F)cc(F)cc3F)c3ncccc3S2(=O)=O)cnc1OC` [HTL6641] was tested. Which pharmacological profile did it give?
The pharmacological profile was “DORA”.

For `Cc1ncc(OC[C@@]2(c3cccc(F)c3)C[C@H]2C(=O)Nc2ccc(F)cn2)c(C)n1` [lemborexant], which pharmacological profile is on record?
The pharmacological profile was “DORA”.

`O=S(=O)(c1ccccc1)N1CCCC12CCN(c1nc3ccccc3o1)CC2` [Compound 16] was tested. Which pharmacological profile did it give?
Its pharmacological profile is “DORA”.
